The test system of the assay is mice. Briefly: In vivo animal experiment: protein expression level after intramuscular administration of mRNA lipid nanoparticles (IVIS luminescence). As to conditions: intramuscular left hind leg, 1.25 μg mRNA/mouse, time point of the value not stated. The protocol: An experiment was carried out in mice in order to evaluate lipid nanoparticles encapsulating an mRNA. By injecting mice with a solution including lipid nanoparticles to transfect the mice and measuring the amount of a predetermined protein produced, the performance of the lipid nanoparticles used can be evaluated. Hereinafter, the procedure of the experiment will be shown.
By using lipids (Ib), (Ik), and (II) of Examples 2, 11, and 12, lipid nanoparticle-containing solutions for the in vivo animal experiment were prepared. […]
50 μL (1.25 μg/mouse, in terms of amount of mRNA) of the solution for administration was intramuscularly administered to the left hind leg of mice. […] 10 Minutes after administration of the luciferin solution, the amount of luminescence at a predetermined time after administration was measured under isoflurane anesthesia with an in vivo imaging system (manufactured by Xenogen, IVIS) to calculate the protein expression level.

Consider `CCCCCCCC/C=C\CCCCCCCCC(CCCCCCC/C=C\CCCCCCCC)OC(=O)C(CCC(=O)O)NC(=O)C(N)CCCNC(=N)N` (centres unmarked) [Example 2, 4-(2-amino-5-guanidinopentanamido)-5-(((9Z,27Z)-hexatriaconta-9,27-dien-18-yl)oxy)-5-oxopentanoic acid], for which the Protein expression level was 130,000 (PEG-modified lipid (PEG2000-DMG 1.5 mol %) present) and 13,000 (PEG-modified lipid absent).
